From patent US5686486A, “4-hydroxy-benzopyran-2-ones and 4-hydroxy-cycloalkyl[b]pyran-2-ones useful to treat retroviral infections” (priority 1995, dated 1997)
pIC50: −log10 of the molar value. “And” between values parts separate entries of the source, which are not always exact repeats. Equal values may be shown once. Read-outs that look alike come from different tables or passages of the source.

Target: HIV-1 protease (Human immunodeficiency virus type 1 group M subtype B, UniProt P04585)
Assay: biochemical
Settings: for inhibition at 1 µM: read-out: HIV-1 Protease % Inhib, dose 1.000 uM; for inhibition at 10 µM: read-out: HIV-1 Protease % Inhib, dose 10.000 uM; for inhibition at 100 µM: read-out: HIV-1 Protease % Inhib, dose 100.000 uM
Experimental: The HIV protease screening assay is based on fluorescently labeled substrate which can be resolved from nonlabeled cleavage product using special beads coated with streptavidin. The substrate is biotinylated at the amino terminal arginine and fluorescently labeled with fluorescein isothiocynate (FITC) at the carboxyl terminal lysine. This assay has been employed to detect novel, nonpeptidic inhibitors of HIV-1 protease. Substrate (20 μl of 0.2 μM), sample (10 μl of desired concentration), and enzyme (10 μl of 0.1 μM) are added to a 96 well pandex plate. The assay is run in 0.1M sodium acetate buffer at pH 5.5 in the presence of 1.0M sodium chloride and 0.05% NP-40 with incubated in the dark for one hour at room temperature. Strepavidin coated polystyrene beads {40 μl of 0.1% (w/v)} are added and the plate is incubated in the dark for an additional half hour. The labeled cleavage product is separated from the unreacted substrate via filtration and is read on the Idexx screen machine. The data are analyzed by appropriate computer algorithms to ascertain percent inhibition values.

Compound: CCC(c1cccc(OCC(O)CO)c1)c1c(O)c2ccccc2oc1=O (stereo not shown) [Example 68, 3-(1'-(3-((2,3-Dihydroxy)propyloxy)phenyl)propyl)-4-hydroxycoumarin]
- inhibition at 1 µM: < 10%
- inhibition at 10 µM: < 10%
- inhibition at 100 µM: 56%

Compound: C=CCOc1ccccc1C(CC)c1c(O)c2ccccc2oc1=O (stereo not shown) [Example 69, 3-(1'-(2-Allyloxyphenyl)propyl)-4-hydroxycoumarin]
- inhibition at 1 µM: < 10%
- inhibition at 10 µM: 20.6%
- inhibition at 100 µM: 92.2%

Compound: CCC(c1ccccc1OC)c1c(O)c2ccccc2oc1=O (stereo not shown) [Example 70, 3-(1'-(2-Methoxyphenyl)propyl)-4-hydroxycoumarin]
- inhibition at 1 µM: < 10%
- inhibition at 10 µM: 10.2%
- inhibition at 100 µM: 72.2%

Compound: CCC(c1cccc(Br)c1)c1c(O)c2ccccc2oc1=O (stereo not shown) [Example 71, 3-(1'-(3-Bromophenyl)propyl)-4-hydroxycoumarin]
- inhibition at 1 µM: < 10%
- inhibition at 10 µM: 15%
- inhibition at 100 µM: 80%

Compound: CCC(c1ccc(OC(C)=O)cc1)c1c(O)c2ccccc2oc1=O (stereo not shown) [Example 72, 3-(1'-(4-Acetoxyphenyl)propyl)4-hydroxycoumarin]
- inhibition at 1 µM: < 10%
- inhibition at 10 µM: 18.9%
- inhibition at 100 µM: 92.3%

Compound: CCC(c1ccccc1OC(C)=O)c1c(O)c2ccccc2oc1=O (stereo not shown) [Example 73, 3-(1'-(2-Acetoxyphenyl)propyl)-4-hydroxycoumarin]
- inhibition at 1 µM: < 10%
- inhibition at 10 µM: 29.9%
- inhibition at 100 µM: 96.7%

Compound: C=CC(c1ccccc1)c1c(O)c2ccccc2oc1=O (stereo not shown) [Example 74, 4-Hydroxy-3-(1-phenyl-2-propenyl)-coumarin]
- inhibition at 1 µM: < 10%
- inhibition at 10 µM: < 10%
- inhibition at 100 µM: 82.3%

Compound: O=c1oc2ccccc2c(O)c1C1CCCCc2ccccc21 (stereo not shown) [Example 75, 4-Hydroxy-3-(5,6,7,8,9-tetrahydro-5H-benzocycloheptenyl)-coumarin]
- pIC50 (HIV-1 Protease IC50): 5.62
- inhibition at 1 µM: 14.5%
- inhibition at 10 µM: 72.7%
- inhibition at 100 µM: 96.6%

Compound: COc1ccc2c(c1)CCCC2c1c(O)c2ccccc2oc1=O (stereo not shown) [Example 76, 4-Hydroxy-3-(1-(6-methoxy)-1,2,3,4-tetrahydronaphthyl)-coumarin]
- inhibition at 1 µM: < 10%
- inhibition at 10 µM: 47.8%
- inhibition at 100 µM: 96.5%

Compound: COc1ccc2c(c1)C(c1c(O)c3ccccc3oc1=O)CCC2 (stereo not shown) [Example 77, 4-Hydroxy-3-(1-(7-methoxy)-1,2,3,4-tetrahydronaphthyl)-coumarin]
- inhibition at 1 µM: < 10%
- inhibition at 10 µM: 57.8%
- inhibition at 100 µM: 92.5%

Compound: C=CCOc1ccc2c(O)c(C(CC)c3ccccc3)c(=O)oc2c1 (stereo not drawn) [Example 78, Coumarin, 7-(allyloxy)-3-(α-ethylbenzyl)-4-hydroxy-]
- pIC50 (HIV-1 Protease IC50): 5.08
- inhibition at 1 µM: < 10%
- inhibition at 10 µM: 65.7%
- inhibition at 100 µM: 83.5%

Compound: CCC(c1cccc(NC(=O)CCc2c[nH]c3ccccc23)c1)c1c(O)c2ccccc2oc1=O (stereo not drawn) [Example 79, Coumarin, 3-[α-ethyl-[[[2-(indol-3-yl)ethyl]carbonyl]amino]benzyl]-4-hydroxy-]
- inhibition at 1 µM: < 10%
- inhibition at 10 µM: 61%
- inhibition at 100 µM: 80.9%
- pIC50 (read-out: HIV-1 Protease IC50): 4.88

Compound: COc1ccc2c(O)c(C(C3CC3)C3CC3)c(=O)oc2c1 [Example 80, Coumarin, 3-[bis(cyclopropyl)methyl]-4-hydroxy-7-methoxy-]
- pIC50 (HIV-1 Protease IC50): 5.07
- inhibition at 1 µM: < 10%
- inhibition at 10 µM: 62.6%
- inhibition at 100 µM: 102%

Compound: CCC(c1ccccc1)c1c(O)c2ccc(OC(C)C)cc2oc1=O (stereo not drawn) [Example 81, Coumarin, 3-(α-ethylbenzyl)-4-hydroxy-7-(1-methylethoxy)-]
- pIC50 (HIV-1 Protease IC50): 5.43
- inhibition at 1 µM: 62%
- inhibition at 10 µM: 75.6%
- inhibition at 100 µM: 85.3%

Compound: CCOc1ccc2c(O)c(C(CC)c3ccccc3)c(=O)oc2c1 (stereo not drawn) [Example 82, Coumarin, 7-ethoxy-3-(α-ethylbenzyl)-4-hydroxy-]
- pIC50 (HIV-1 Protease IC50): 6.05
- inhibition at 1 µM: 30.9%
- inhibition at 10 µM: 69.7%
- inhibition at 100 µM: 89%

Compound: CCOC(=O)C(CC)c1c(O)c2ccccc2oc1=O (stereo not shown) [Example 83, Butanoic acid, 2-(4-hydroxy-2-oxo-2H-1-benzopyran-3-yl)-, ethyl ester]
- inhibition at 1 µM: < 10%
- inhibition at 10 µM: < 10%
- inhibition at 100 µM: 50.1%

Compound: CCC(Cc1c(O)c2ccccc2oc1=O)c1ccccc1 (stereo not shown) [Example 84, Coumarin, 4-hydroxy-3-(2-phenylbutyl)-]
- inhibition at 1 µM: < 10%
- inhibition at 10 µM: 30.2%

Compound: CCC(c1ccc(O)cc1)c1c(O)c2ccccc2oc1=O (stereo not shown) [Example 85, Coumarin, 4-hydroxy-3-[1-(4-hydroxyphenyl)propyl]-]
- inhibition at 1 µM: < 10%
- inhibition at 10 µM: 31.6%
- inhibition at 100 µM: 100%

Compound: CCC(c1ccccc1)c1c(O)c2ccc(C(F)(F)F)cc2oc1=O (stereo not shown) [Example 86, Coumarin, 7-trifluoromethyl-4-hydroxy-3-(1-phenylpropyl)-]
- inhibition at 1 µM: 10.5%
- inhibition at 10 µM: 56.9%
- inhibition at 100 µM: 95.8%

Compound: CCC(c1ccccc1)c1c(O)c2cc(F)ccc2oc1=O (stereo not shown) [Example 87, Coumarin, 6-fluoro-4-hydroxy-3-(1-phenylpropyl)-]
- inhibition at 1 µM: < 10%
- inhibition at 10 µM: 20.6%
- inhibition at 100 µM: 79%

Compound: CCC(c1ccccc1)c1c(O)c2ccc(OC)cc2oc1=O (stereo not shown) [Example 88, Coumarin, 4-hydroxy-7-methoxy-3-(. 1-phenylpropyl)-]
- pIC50 (HIV-1 Protease IC50): 5.82 and 5.80 and 5.70
- HIV-1 Protease % Inhib (dose 12.500 uM): 80.8%
- HIV-1 Protease % Inhib (dose 100.000 uM): 117.82% and 92% and 93.5%
- inhibition at 1 µM: 80%
- inhibition at 1.56 µM (read-out: HIV-1 Protease % Inhib, dose 1.560 uM): 49.9%
- inhibition at 1.57 µM (read-out: HIV-1 Protease % Inhib, dose 1.570 uM): 41.7%
- inhibition at 10 µM: 108%
- inhibition at 12.5 µM (read-out: HIV-1 Protease % Inhib, dose 12.500 uM): 89.2%

Compound: CCC(c1ccccc1)c1c(O)c2cc(OC)ccc2oc1=O (stereo not shown) [Example 89, Coumarin, 4-hydroxy-6-methoxy-3-(1-phenylpropyl)-]
- inhibition at 1 µM: < 10%
- inhibition at 10 µM: 10.3%
- inhibition at 100 µM: 52%

Compound: CCC(c1ccccc1)c1c(O)c2ccc(C)cc2oc1=O (stereo not shown) [Example 90, Coumarin, 4-hydroxy-7-methyl-3-(1-phenylpropyl)-]
- inhibition at 1 µM: < 10%
- inhibition at 10 µM: 29.7%
- inhibition at 100 µM: 89.2%

Compound: CCC(c1ccc(Br)cc1)c1c(O)c2ccccc2oc1=O (stereo not shown) [Example 91, Coumarin, 3-[1-(4-bromophenyl)propyl]-4-hydroxy-]
- HIV-1 Protease % Inhib (dose 100.000 uM): 94.41% and 71.61%
- inhibition at 1 µM: < 10%
- inhibition at 10 µM: 38.4%

Compound: CCC(c1ccccc1)c1c(O)c2ccc(Cl)cc2oc1=O (stereo not shown) [Example 92, Coumarin, 7-chloro-4-hydroxy-3-(1-phenylpropyl)-]
- inhibition at 1 µM: < 10%
- inhibition at 10 µM: 67.8%
- inhibition at 100 µM: 113%

Compound: CCC(c1ccccc1)c1c(O)c2ccc(O)cc2oc1=O (stereo not shown) [Example 93, Coumarin, 4,7-dihydroxy-3-(1-phenylpropyl)-]
- pIC50 (HIV-1 Protease IC50): 4.69
- HIV-1 Protease % Inhib (dose 100.000 uM): 91.7%
- inhibition at 1 µM: 23.2%
- inhibition at 10 µM: 79.4%
- inhibition at 100 µM: 109%

Compound: CCC(c1ccc(OC)cc1)c1c(O)c2ccccc2oc1=O (stereo not shown) [Example 94, Coumarin, 4-hydroxy-3-[1-(4-methoxyphenyl)propyl]-]
- HIV-1 Protease % Inhib (dose 100.000 uM): 82.45%
- inhibition at 1 µM: < 10%
- inhibition at 10 µM: 44.7%
- inhibition at 100 µM: 96.4%

Compound: CCC(c1ccccc1)c1c(O)c2cc(O)ccc2oc1=O (stereo not shown) [Example 95, Coumarin, 4,6-dihydroxy-3-(1-phenylpropyl)-]
- inhibition at 1 µM: < 10%
- inhibition at 10 µM: 34.7%
- inhibition at 100 µM: 79.6%
